Reference: US20210113529A1, “MEDICINE FOR PREVENTING OR TREATING OPHTHALMIC DISEASE ASSOCIATED WITH ENHANCED INTRAOCULAR NEOVASCULARIZATION AND/OR INTRAOCULAR VASCULAR PERMEABILITY” (KYOTO UNIVERSITY, priority 2018, published 2021)

Assays:
S1P3 receptor = S1P3 receptor (Homo sapiens, UniProt Q99500); conditions: GTP[γ35S] binding assay; report PLoS One, 2014; cited from earlier work
S1P2 receptor = S1P2 receptor (Homo sapiens, UniProt O95136); conditions: GTP[γ35S] binding assay; report PLoS One, 2014; cited from earlier work
Sequence of S1P2 receptor (O95136 whole entry): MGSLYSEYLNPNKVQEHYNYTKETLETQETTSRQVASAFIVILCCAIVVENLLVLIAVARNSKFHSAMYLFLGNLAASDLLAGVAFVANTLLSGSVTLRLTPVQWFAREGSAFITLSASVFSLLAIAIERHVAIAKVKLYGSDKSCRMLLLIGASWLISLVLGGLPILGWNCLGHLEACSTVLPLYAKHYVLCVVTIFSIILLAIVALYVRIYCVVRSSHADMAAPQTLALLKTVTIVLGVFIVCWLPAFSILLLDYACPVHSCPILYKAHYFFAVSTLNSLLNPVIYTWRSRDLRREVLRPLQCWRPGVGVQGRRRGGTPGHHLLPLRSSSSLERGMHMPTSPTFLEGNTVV

[1] = tested on: retinal vein occlusion (RVO) model; assay: RVO model, intravitreal administration: thickness of INL; type: in vivo, mice; conditions: 0.8 ng, 8 ng or 80 ng per eye immediately after laser irradiation, 1 day after irradiation
Method: (§1) Eight-week-old mice (Japan SLC, Inc., ddy strain) were anesthetized by intramuscularly administering 10 mL/kg of a mixed anesthetic solution diluted so as to contain ketamine (120 mg/kg) and xylazine (6 mg/kg). After that, 0.15 mL of rose bengal (20 mg/kg; WAKO) was administered into the tail vein, and a vein three head systems away from the optic nerve head of the right eye of the mice was irradiated with a laser to occlude a retinal vein. For the occlusion, the laser irradiation was performed 10 times to 15 times per vein. For the laser irradiation, an attachment of a fundus photography apparatus Micron 4 (Phoenix Research Laboratories, Inc., Pleasanton, Calif., USA) was used (wavelength: 532 nm, spot size: 50 μm, irradiation time: 5,000 ms, laser output: 50 mW). Three veins were occluded per eye, and it was confirmed with photographs of the fundus that the laser-irradiated veins had been completely occluded. […]
(§2) After 1 day from the laser irradiation, the mice were euthanized by cervical dislocation, the eyeball was extirpated, and histological evaluation was performed by a hematoxylin-eosin staining method. In addition, the thickness of the retinal inner nuclear layer (INL) was measured at intervals of 240 μm on both sides, i.e., ear side and nose side from the center of the optic nerve head. […]

[2] = tested on: human retinal vascular endothelial cells (HRMECs); assay: Permeability of human retinal vascular endothelial cells (Transwell, FITC-dextran); type: cell-based; conditions: HRMECs in Transwell; 0.3 nM, 3 nM or 30 nM; 60 minutes pre-culture, 60 minutes after FITC-dextran (40 kDa)
Method: The upper chamber of Transwell (diameter: 6.5 mm, pore size: 0.4 μm: Corning Incorporated) coated with collagen and fibronectin was seeded with human retinal vascular endothelial cells (HRMECs) (Cell Systems) at a cell density of 5×10^4 cells/well, and the cells were cultured in Endothelial Cell Growth Medium MV 2 (PromoCell GmbH) under a 5% CO2 atmosphere at 37° C. for 6 days. Then, to the upper chamber and lower chamber of the Transwell, Compound 1 at a final concentration of 0 nM, 0.3 nM, 3 nM, or 30 nM, which had been prepared using 0.001% dimethyl sulfoxide-containing Endothelial Cell Growth Medium MV 2 as a vehicle, was added, and culture was continued. A well to which only the vehicle was added was used as a control. After 60 minutes of culture, 1 mg/mL of fluorescein isothiocyanate (FITC)-dextran (40 kDa: Sigma-Aldrich) was added to the upper chamber of the Transwell, and 60 minutes later, the fluorescence intensity of the medium in the lower chamber was measured to measure the amount of FITC-dextran permeating the lower chamber.

[3] = tested on: retinal vein occlusion (RVO) model; assay: Retinal vein occlusion (RVO) model, oral: thickness of retinal inner nuclear layer (INL); type: in vivo, mice; conditions: dose of at least 0.03 mg/kg or more, 12 hours before and immediately after laser irradiation, 24 hours after irradiation
Method: as §1
as §2, with “24 hours” for “1 day”

Body weight in CNV model = type: in vivo, mice; conditions: oral once daily dosing, vs vehicle group
Description: A case in which FA was unable to be performed owing to cloudiness caused by a flaw in the eye produced before the FA evaluation and a case in which CNV was connected at the time of the evaluation of the area of CNV were excluded from analysis, and the above-mentioned results were each calculated as a mean of 11 or 12 mice in each group. […] A case in which FA was unable to be performed owing to cloudiness caused by a flaw in the eye produced before the FA evaluation and a case in which CNV was connected at the time of the evaluation of the area of CNV were excluded from analysis, and the above-mentioned results were each calculated as a mean of 12 mice in each group.

S1P1 receptor = S1P1 receptor (Homo sapiens, UniProt P21453); conditions: GTP[γ35S] binding assay; report PLoS One, 2014, 9(10), e110819; read-out: EC50 for S1P1 receptor agonist activity; cited from earlier work
Sequence of S1P1 receptor (P21453 whole entry): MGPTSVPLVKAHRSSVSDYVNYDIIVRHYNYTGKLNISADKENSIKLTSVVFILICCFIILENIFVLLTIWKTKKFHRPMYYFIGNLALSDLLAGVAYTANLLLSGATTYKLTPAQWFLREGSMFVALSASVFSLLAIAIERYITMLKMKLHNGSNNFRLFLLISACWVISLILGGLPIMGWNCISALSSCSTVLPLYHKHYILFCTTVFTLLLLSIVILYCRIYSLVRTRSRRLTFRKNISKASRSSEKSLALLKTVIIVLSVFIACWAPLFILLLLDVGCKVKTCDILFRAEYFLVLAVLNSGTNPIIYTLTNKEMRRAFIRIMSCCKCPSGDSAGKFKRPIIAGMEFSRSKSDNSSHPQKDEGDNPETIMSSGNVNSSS

S1P4 receptor = target: T1, S1P4 receptor (Homo sapiens, UniProt O95977); conditions: GTP[γ35S] binding assay; report PLoS One, 2014; cited from earlier work
T1 sequence (O95977 1-384): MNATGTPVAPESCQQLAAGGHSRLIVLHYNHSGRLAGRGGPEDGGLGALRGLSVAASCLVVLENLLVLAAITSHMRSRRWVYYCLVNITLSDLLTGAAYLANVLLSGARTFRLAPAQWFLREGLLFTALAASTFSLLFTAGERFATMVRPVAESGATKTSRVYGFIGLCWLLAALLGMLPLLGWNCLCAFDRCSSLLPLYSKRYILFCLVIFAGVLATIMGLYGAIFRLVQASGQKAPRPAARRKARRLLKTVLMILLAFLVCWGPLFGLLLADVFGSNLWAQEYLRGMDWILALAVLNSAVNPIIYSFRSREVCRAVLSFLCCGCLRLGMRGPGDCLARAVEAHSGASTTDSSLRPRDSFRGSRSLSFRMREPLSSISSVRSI

Sequence of S1P3 receptor (Q99500 whole entry): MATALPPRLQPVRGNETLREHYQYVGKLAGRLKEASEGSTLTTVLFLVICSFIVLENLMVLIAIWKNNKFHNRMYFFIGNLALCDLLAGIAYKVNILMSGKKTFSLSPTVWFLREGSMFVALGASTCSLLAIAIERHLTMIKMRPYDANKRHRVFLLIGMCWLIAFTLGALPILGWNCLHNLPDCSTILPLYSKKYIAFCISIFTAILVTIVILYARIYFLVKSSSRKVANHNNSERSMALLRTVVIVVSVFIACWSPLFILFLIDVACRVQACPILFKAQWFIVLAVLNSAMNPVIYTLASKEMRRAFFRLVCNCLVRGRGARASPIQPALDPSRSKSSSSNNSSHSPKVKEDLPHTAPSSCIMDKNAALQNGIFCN

C[C@H](Oc1ccc(-c2nc(-c3ccc4[nH]cnc4c3)no2)cc1C(F)(F)F)C(F)(F)F.Cl [Compound 1, 5-{5-[3-(trifluoromethyl)-4-{[(2S)-1,1,1-trifluoropropan-2-yl]oxy}phenyl]-1,2,4-oxadiazol-3-yl}-1H-benzimidazole monohydrochloride]
EC50 for S1P3 receptor agonist activity as compared to that for the S1P1 receptor (S1P3 receptor): ≥ 100 fold
EC50 for S1P2 receptor agonist activity as compared to that for the S1P1 receptor (S1P2 receptor): ≥ 100 fold
thickening of the INL (retinal edema) [1]: ameliorated the thickening of the INL
amount of FITC-dextran permeating the lower chamber (fluorescence intensity) [2]: significantly decreased the amount of FITC-dextran permeating the lower chamber
thickening of the INL (retinal edema) [3]: ameliorated the thickening of the INL
change in body weight between the groups before sampling (Body weight in CNV model): a significant change in body weight between the groups before sampling was not found
EC50 (S1P1 receptor): 7.4 nM
EC50 for S1P4 receptor agonist activity as compared to that for the S1P1 receptor (S1P4 receptor): ≥ 100 fold
